Measurements as given in patent publication EP4725957A1, “GROUP OF CYCLIC ALKALINE LIPOPEPTIDE COMPOUNDS, AND PREPARATION METHOD THEREFOR AND USE THEREOF” (Institute of Medicinal Biotechnology, Chinese Academy of …, priority 2023, dated 2024).
≈ marks a conversion by molar mass, not a printed value. Read-outs that look alike come from different tables or passages of the source. Bridge positions count the residues as written; N and C are the ends. Square brackets hold non-standard residues; d marks the D form. Peptide text beside a SMILES is read from it. * marks the point of attachment. Heptanoyl(6-Me) = CC(C)CCCCC(=O)*; Sulfomethyl = O=S(=O)(O)C*; Nonanoyl = CCCCCCCCC(=O)*; X1 = CC[C@H](C)CCCCC(=O)*; dDab = NCC[C@@H](N)C(=O)O; Heptanoyl = CCCCCCC(=O)*; Octanoyl = CCCCCCCC(=O)*; dDap = NC[C@@H](N)C(=O)O; Dab = NCC[C@H](N)C(=O)O; Dap = NC[C@H](N)C(=O)O

How the values were obtained:
Assay type in all cases: cell-based
[1] = test system: Acinetobacter baumannii ABA19-1
Summary of the method: (§1)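 Broth microdilution MIC per CLSI in MH broth, compounds 2-fold diluted to final 64–0.03 mg/L. Inoculum (2-4) × 10^5 CFU/mL final, from 0.5 McFarland suspensions of 18-24 h colonies. Plates sealed and incubated 35-37°C for 16-20 h.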

[2] = test system: Acinetobacter baumannii NCTC 13304 (OXA-27)
Summary of the method: as §1

[3] = test system: Escherichia coli ATCC BAA-2340 (KPC)
Summary of the method: as §1

[4] = test system: Escherichia coli ATCC BAA-2523
Summary of the method: as §1

[5] = test system: Klebsiella pneumoniae ATCC BAA-1705 (KPC)
Summary of the method: as §1

[6] = test system: Klebsiella pneumoniae KPN+19-15
Summary of the method: as §1

[7] = test system: Pseudomonas aeruginosa ATCC 27853
Summary of the method: as §1

[8] = test system: Pseudomonas aeruginosa PAE19-3
Summary of the method: as §1

[9] = Nephrotoxicity assay: in vitro cytotoxicity of HK-2 cells by CCK-8 assay; conditions: human, HK-2 cells (human renal), 72 h incubation with drug-containing medium
Summary of the method: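 HK-2 human renal cells in RPMI-1640 with 10% FBS were exposed to compounds at final 12.5–500 µg/mL for 72 h, then CCK-8 for 3 h and OD450 read. Viability was normalised to drug-free wells; IC50 came from logarithmic regression over three repeats, with polymyxin B as positive drug.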

| SMILES | MIC ([1]; ABA19-1) [µg/mL] | MIC ([2]; NCTC 13304) [µg/mL] | MIC ([3]; ATCC BAA-2340) [µg/mL] | MIC ([4]; ATCC BAA-2523) [µg/mL] | MIC ([5]; ATCC BAA-1705) [µg/mL] | MIC ([6]; KPN+19-15) [µg/mL] | MIC ([7]; ATCC 27853) [µg/mL] | MIC ([8]; PAE19-3) [µg/mL] | IC50 at 72 h [9] [µg/mL] | MIC ([1]; Acinetobacter baumannii ABA19-1) [µg/mL] | MIC ([2]; Acinetobacter baumannii NCTC 13304 (OXA-27)) [µg/mL] | MIC ([3]; Escherichia coli ATCC BAA-2340 (KPC)) [µg/mL] | MIC ([4]; Escherichia coli ATCC BAA-2523) [µg/mL] | MIC ([5]; Klebsiella pneumoniae ATCC BAA-1705 (KPC)) [µg/mL] | MIC ([6]; Klebsiella pneumoniae KPN 19-15) [µg/mL] | MIC ([7]; Pseudomonas aeruginosa ATCC27853) [µg/mL] | MIC ([8]; Pseudomonas aeruginosa PAE19-3) [µg/mL] |
| --- | --- | --- | --- | --- | --- | --- | --- | --- | --- | --- | --- | --- | --- | --- | --- | --- | --- |
| CCCCCCC(=O)N[C@@H](CCN)C(=O)N[C@H](C(=O)N[C@H](CCN)C(=O)N[C@H]1CCNC(=O)[C@H]([C@@H](C)O)NC(=O)[C@H](CCN)NC(=O)[C@H](CCN)NC(=O)[C@H]([C@@H](C)O)NC(=O)[C@@H](Cc2ccccc2)NC(=O)[C@H](CCN)NC1=O)[C@@H](C)O [Compound 14, Heptanoyl-Dab-Thr-D-Dab-ring(4-10)[Dab-Dab-D-Phe-Thr-Dab-Dab-Thr]] (Heptanoyl-[Dab]T[dDab][Dab][Dab][dF]T[Dab][Dab]T; lactam 4-C) | 0.03 (≈ 0.0258 µM) | 0.03 (≈ 0.0258 µM) | 0.03 (≈ 0.0258 µM) | 0.03 (≈ 0.0258 µM) | 0.06 (≈ 0.0516 µM) | 0.03 (≈ 0.0258 µM) | 2 (≈ 1.72 µM) | 2 (≈ 1.72 µM) | > 500 |  |  |  |  |  |  |  |  |
| CC(C)CCCCC(=O)N[C@@H](CCN)C(=O)N[C@H](C(=O)N[C@H](CO)C(=O)N[C@H]1CCNC(=O)[C@H]([C@@H](C)OCS(=O)(=O)O)NC(=O)[C@H](CCN)NC(=O)[C@H](CCN)NC(=O)[C@H]([C@@H](C)O)NC(=O)[C@@H](Cc2ccccc2)NC(=O)[C@H](CCN)NC1=O)[C@@H](C)O [Compound 106, 6-methylheptanoyl-Dab-Thr-D-Ser-ring(4-10)[Dab-Dab-D-Phe-Thr-Dab-Dab-Thr(CH2SO3H)]] ({Heptanoyl(6-Me)}-[Dab]T[dS][Dab][Dab][dF]T[Dab][Dab]T(Sulfomethyl); lactam 4-C) | 0.06 (≈ 0.0477 µM) | 0.06 (≈ 0.0477 µM) | 0.03 (≈ 0.0238 µM) | 0.03 (≈ 0.0238 µM) | 0.125 (≈ 0.0993 µM) | 0.125 (≈ 0.0993 µM) | 0.25 (≈ 0.199 µM) | 0.25 (≈ 0.199 µM) | > 500 |  |  |  |  |  |  |  |  |
| CCCCCCCC(=O)N[C@@H](CCN)C(=O)N[C@H](C(=O)N[C@H](CN)C(=O)N[C@H]1CCNC(=O)[C@H]([C@@H](C)O)NC(=O)[C@H](CCN)NC(=O)[C@H](CCN)NC(=O)[C@H](CC(C)C)NC(=O)[C@@H](Cc2ccccc2)NC(=O)[C@H](CCN)NC1=O)[C@@H](C)O [Compound 33, Octanoyl-Dab-Thr-D-Dap-ring(4-10)[Dab-Dab-D-Phe-Leu-Dab-Dab-Thr]] (Octanoyl-[Dab]T[dDap][Dab][Dab][dF]L[Dab][Dab]T; lactam 4-C) |  |  |  |  |  |  |  |  | 339 ± 9.1 (≈ 289 µM) | 0.03 (≈ 0.0255 µM) | 0.03 (≈ 0.0255 µM) | 0.03 (≈ 0.0255 µM) | 0.03 (≈ 0.0255 µM) | 0.03 (≈ 0.0255 µM) | 0.03 (≈ 0.0255 µM) | 0.03 (≈ 0.0255 µM) | 0.25 (≈ 0.213 µM) |
| CC[C@H](C)CCCCC(=O)N[C@@H](CCN)C(=O)N[C@H](C(=O)N[C@H](CO)C(=O)N[C@H]1CCNC(=O)[C@H]([C@@H](C)O)NC(=O)[C@H](CCN)NC(=O)[C@H](CN)NC(=O)[C@H]([C@@H](C)O)NC(=O)[C@@H](Cc2ccccc2)NC(=O)[C@H](CCN)NC1=O)[C@@H](C)O [Compound 71, (S)-6-methyloctanoyl-Dab-Thr-D-Ser-ring(4-10)[Dab-Dab-D-Phe-Thr-Dap-Dab-Thr]] (X1-[Dab]T[dS][Dab][Dab][dF]T[Dap][Dab]T; lactam 4-C) | 0.06 (≈ 0.0515 µM) | ≤0.03 | ≤0.03 | ≤0.03 | 0.25 (≈ 0.215 µM) | 0.5 (≈ 0.429 µM) | >64 | 64 (≈ 55 µM) | > 500 |  |  |  |  |  |  |  |  |
| CCCCCCC(=O)N[C@@H](CCN)C(=O)N[C@H](C(=O)N[C@@H](CN)C(=O)N[C@H]1CCNC(=O)[C@H]([C@@H](C)O)NC(=O)[C@H](CCN)NC(=O)[C@H](CCN)NC(=O)[C@H]([C@@H](C)O)NC(=O)[C@@H](Cc2ccccc2)NC(=O)[C@H](CCN)NC1=O)[C@@H](C)O [Compound 9, Heptanoyl-Dab-Thr-Dap-ring(4-10)[Dab-Dab-D-Phe-Thr-Dab-Dab-Thr]] (Heptanoyl-[Dab]T[Dap][Dab][Dab][dF]T[Dab][Dab]T; lactam 4-C) | 0.03 (≈ 0.0261 µM) | 0.03 (≈ 0.0261 µM) | 0.03 (≈ 0.0261 µM) | 0.03 (≈ 0.0261 µM) | 0.03 (≈ 0.0261 µM) | 0.03 (≈ 0.0261 µM) | 0.125 (≈ 0.109 µM) | 0.25 (≈ 0.218 µM) | > 500 |  |  |  |  |  |  |  |  |
| CCCCCCCCC(=O)N[C@@H](CCN)C(=O)N[C@H](C(=O)N[C@H](CO)C(=O)N[C@H]1CCNC(=O)[C@H]([C@@H](C)O)NC(=O)[C@H](CCN)NC(=O)[C@H](CN)NC(=O)[C@H]([C@@H](C)O)NC(=O)[C@@H](Cc2ccccc2)NC(=O)[C@H](CCN)NC1=O)[C@@H](C)O [Compound 75, Nonanoyl-Dab-Thr-D-Ser-ring(4-10)[Dab-Dab-D-Phe-Thr-Dap-Dab-Thr]] (Nonanoyl-[Dab]T[dS][Dab][Dab][dF]T[Dap][Dab]T; lactam 4-C) | 0.06 (≈ 0.0515 µM) | 0.03 (≈ 0.0258 µM) | 0.06 (≈ 0.0515 µM) | 0.06 (≈ 0.0515 µM) | 0.25 (≈ 0.215 µM) | 0.5 (≈ 0.429 µM) | >64 | 64 (≈ 55 µM) | 310 ± 19.8 (≈ 266 µM) |  |  |  |  |  |  |  |  |
